In patent US20240425482A1, “PYRROLIDINE DERIVATIVES AS DDRS INHIBITORS” (CHIESI FARMACEUTICI S.P.A., priority 2021, published 2024):
pKi: −log10 of the molar value. Where two headings read alike, the source gives them in different places.

How the values were obtained:
DDR1 = DDR1 (Homo sapiens (Human), UniProt Q08345); test: DDR1 LanthaScreen Europium Kinase Binding assay
Method: (§1) DDR1 and DDR2 binding assays were performed using Life Technologies LanthaScreen™ Europium Kinase Binding assay. The compounds were incubated with 5 nM DDR1 (Carna Biosciences) or 5 nM DDR2 (Life Technologies) for 1 hour at rt in white 384-well OptiPlate (PerkinElmer), containing 20 nM or 10 nM Kinase Tracer 178 respectively and 2 nM Europium labelled anti-GST antibody (Life Technologies) in assay buffer (50 mM HEPES pH 7.5, 10 mM MgCI2, 1 mM EGTA and 0.01% BRIJ35). The ratio of fluorescence emission 665 nm/615 nm after excitation at 340 nm was obtained using the Tecan Spark 20M plate reader. IC50 values were determined in GraphPad Prism 7.0 software, using 4 parameter model: log(inhibitor) vs. response. IC50 values were converted in Ki using the Cheng-Prusoff equation (Ki=IC50/(1+[Tracer]/Kd).
(§2) Compounds C1 and C2 were tested in the same binding assay described above.

DDR2 = DDR2 (Homo sapiens (Human), UniProt Q16832); test: DDR2 LanthaScreen Europium Kinase Binding assay
Method: as §1, §2

[1] = binding, 5 nM DDR1, 20 nM Kinase Tracer 178, 1 hour at rt, Ki from IC50 by Cheng-Prusoff, read-out: Ki DDR1
[2] = binding, 5 nM DDR2, 10 nM Kinase Tracer 178, 1 hour at rt, Ki from IC50 by Cheng-Prusoff, read-out: Ki DDR2
[3] = same binding assay, numeric values, read-out: DDR1 Ki

Chain of DDR1 (Q08345 19-913): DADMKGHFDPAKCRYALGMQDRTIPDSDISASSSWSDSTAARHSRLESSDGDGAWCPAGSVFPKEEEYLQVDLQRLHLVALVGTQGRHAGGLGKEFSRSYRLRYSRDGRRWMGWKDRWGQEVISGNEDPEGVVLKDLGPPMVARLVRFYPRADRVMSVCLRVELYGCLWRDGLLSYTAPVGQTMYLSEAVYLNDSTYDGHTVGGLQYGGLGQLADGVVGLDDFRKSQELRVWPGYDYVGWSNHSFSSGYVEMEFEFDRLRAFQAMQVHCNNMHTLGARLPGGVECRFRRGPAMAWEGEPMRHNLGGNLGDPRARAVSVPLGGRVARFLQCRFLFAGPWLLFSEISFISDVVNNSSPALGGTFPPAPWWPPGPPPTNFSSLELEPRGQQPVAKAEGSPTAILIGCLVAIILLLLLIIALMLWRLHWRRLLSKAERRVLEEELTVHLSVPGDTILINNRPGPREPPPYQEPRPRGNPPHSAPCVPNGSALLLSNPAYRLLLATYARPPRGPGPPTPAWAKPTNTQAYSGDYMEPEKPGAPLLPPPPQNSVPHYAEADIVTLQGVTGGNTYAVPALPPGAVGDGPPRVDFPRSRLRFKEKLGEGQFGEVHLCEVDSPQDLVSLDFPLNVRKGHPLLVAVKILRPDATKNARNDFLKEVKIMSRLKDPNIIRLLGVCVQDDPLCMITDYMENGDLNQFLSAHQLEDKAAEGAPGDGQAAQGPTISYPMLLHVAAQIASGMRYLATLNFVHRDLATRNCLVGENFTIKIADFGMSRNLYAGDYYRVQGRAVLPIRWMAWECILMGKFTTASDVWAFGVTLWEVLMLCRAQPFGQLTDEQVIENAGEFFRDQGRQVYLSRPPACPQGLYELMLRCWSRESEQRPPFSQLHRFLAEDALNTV
Chain of DDR2 (Q16832 22-855): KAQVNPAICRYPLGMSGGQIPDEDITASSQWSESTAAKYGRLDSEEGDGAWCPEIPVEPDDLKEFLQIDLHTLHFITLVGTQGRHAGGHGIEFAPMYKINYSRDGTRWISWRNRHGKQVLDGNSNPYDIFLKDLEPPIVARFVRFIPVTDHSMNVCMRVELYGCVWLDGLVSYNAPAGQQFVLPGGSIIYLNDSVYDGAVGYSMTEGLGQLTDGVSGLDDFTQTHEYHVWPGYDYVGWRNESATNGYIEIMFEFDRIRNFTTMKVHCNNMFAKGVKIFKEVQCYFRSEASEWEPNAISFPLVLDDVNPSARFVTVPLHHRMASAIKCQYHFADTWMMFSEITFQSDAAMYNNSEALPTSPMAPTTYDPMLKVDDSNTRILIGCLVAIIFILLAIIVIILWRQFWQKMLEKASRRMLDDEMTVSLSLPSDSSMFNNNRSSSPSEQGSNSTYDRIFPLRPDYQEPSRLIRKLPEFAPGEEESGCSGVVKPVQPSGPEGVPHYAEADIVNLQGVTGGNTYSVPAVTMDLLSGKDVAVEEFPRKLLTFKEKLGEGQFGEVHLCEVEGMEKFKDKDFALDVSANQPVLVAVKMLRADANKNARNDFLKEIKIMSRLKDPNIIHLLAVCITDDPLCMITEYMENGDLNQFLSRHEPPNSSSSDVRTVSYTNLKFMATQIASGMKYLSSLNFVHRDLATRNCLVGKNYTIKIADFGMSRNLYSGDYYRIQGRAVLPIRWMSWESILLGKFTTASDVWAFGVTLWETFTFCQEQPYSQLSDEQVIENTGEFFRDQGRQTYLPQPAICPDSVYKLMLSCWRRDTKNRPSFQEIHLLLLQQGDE

| Structure (SMILES) | pKi (DDR1; [1]) | pKi (DDR2; [2]) | pKi (DDR2; same binding assay, numeric values, read-out: DDR2 Ki) | pKi (DDR1; [3]) | Ki (DDR2; DDR2 Ki (nM), same binding assay, numeric values) [nM] |
| --- | --- | --- | --- | --- | --- |
| Cc1ccc(C(=O)Nc2cccc(C(F)(F)F)c2)cc1C1CN1c1cccnc1 (centres unmarked) [Compound C1, 4-methyl-3-(1-(pyridin-3-yl)aziridin-2-yl)-N-(3-(trifluoromethyl)phenyl)benzamide, reference compound] | – | – | – | 6.76 | 305 |
| Cc1ccc(C(=O)Nc2cccc(C(F)(F)F)c2)cc1[C@H]1CCN(c2cccnc2)C1 [Example 15, (R)-4-methyl-3-(1-(pyridin-3-yl)pyrrolidin-3-yl)-N-(3-(trifluoromethyl)phenyl)benzamide] | 7.60 to 8.00 | 7.22 to 7.60 | – | – | – |
| Cc1ccc(C(=O)Nc2cccc(C(F)(F)F)c2)cc1[C@@H]1CCN(c2cncc(N3CCC4(COC4)C3)c2)C1 [Example 39, (S)-3-(1-(5-(2-oxa-6-azaspiro[3.4]octan-6-yl)pyridin-3-yl)pyrrolidin-3-yl)-4-methyl-N-(3-(trifluoromethyl)phenyl)benzamide] | 7.60 to 8.00 | < 7.22 | – | – | – |
| Cc1ccc(C(=O)Nc2cccc(C(F)(F)F)c2)cc1C1CCN(Cc2cccnc2)C1 (centres unmarked) [Compound C2, 4-methyl-3-(1-(pyridin-3-ylmethyl)pyrrolidin-3-yl)-N-(3-(trifluoromethyl)phenyl)benzamide, reference compound] | – | – | 6.12 | 6.24 | – |
| Cc1ccc(C(=O)Nc2cccc(C(F)(F)F)c2)cc1[C@@H]1CCN(c2ccnc3[nH]ccc23)C1 [Example 42, (S)-3-(1-(1H-pyrrolo[2,3-b]pyridin-4-yl)pyrrolidin-3-yl)-4-methyl-N-(3-(trifluoromethyl)phenyl)benzamide] | 7.60 to 8.00 | 7.22 to 7.60 | – | – | – |
| Cc1ccc(C(=O)Nc2cccc(C(F)(F)F)c2)cc1[C@@H]1CCN(c2cncc(-c3cnn(C)c3)c2)C1 [Example 52, (S)-4-methyl-3-(1-(5-(1-methyl-1H-pyrazol-4-yl)pyridin-3-yl)pyrrolidin-3-yl)-N-(3-(trifluoromethyl)phenyl)benzamide] | > 8.00 | > 8.00 | – | – | – |
| Cc1ccc(C(=O)Nc2cccc(C(F)(F)F)c2)cc1C1CCN(c2cncc(Br)c2)C1 (centres unmarked) [Example 13, 3-(1-(5-bromopyridin-3-yl)pyrrolidin-3-yl)-4-methyl-N-(3-(trifluoromethyl)phenyl)benzamide] | 7.60 to 8.00 | 7.22 to 7.60 | – | – | – |
| Cc1ccc(C(=O)Nc2cccc(C(F)(F)F)c2)cc1[C@@H]1CCN(c2cncnc2)C1 [Example 20, (S)-4-methyl-3-(1-(pyrimidin-5-yl)pyrrolidin-3-yl)-N-(3-(trifluoromethyl)phenyl)benzamide] | > 8.00 | > 8.00 | – | – | – |
| Cc1ccc(C(=O)Nc2cccc(C(F)(F)F)c2)cc1[C@@H]1CCN(c2cnc3ccnn3c2)C1 [Example 43, (S)-4-methyl-3-(1-(pyrazolo[1,5-a]pyrimidin-6-yl)pyrrolidin-3-yl)-N-(3-(trifluoromethyl)phenyl)benzamide] | 7.22 to 7.60 | 7.22 to 7.60 | – | – | – |
| Cc1ccc(C(=O)Nc2cccc(C(F)(F)F)c2)cc1[C@@H]1CCN(c2cncc(Nc3cnn(C)c3)c2)C1 [Example 45, (S)-4-methyl-3-(1-(5-((1-methyl-1H-pyrazol-4-yl)amino)pyridin-3-yl)pyrrolidin-3-yl)-N-(3-(trifluoromethyl)phenyl)benzamide] | > 8.00 | 7.60 to 8.00 | – | – | – |
| Cc1ccc(C(=O)Nc2cc(CN3CCCC3)cc(C(F)(F)F)c2)cc1[C@@H]1CCN(c2cncc(C(N)=O)c2)C1 [Example 57, (S)-5-(3-(2-methyl-5-((3-(pyrrolidin-1-ylmethyl)-5-(trifluoromethyl)phenyl)carbamoyl)phenyl)pyrrolidin-1-yl)nicotinamide] | > 8.00 | > 8.00 | – | – | – |
| CC(=O)Nc1cncc(N2CC[C@@H](c3cc(C(=O)Nc4cccc(C(F)(F)F)c4)ccc3C)C2)c1 [Example 40, (S)-3-(1-(5-acetamidopyridin-3-yl)pyrrolidin-3-yl)-4-methyl-N-(3-(trifluoromethyl)phenyl)benzamide] | > 8.00 | > 8.00 | – | – | – |
| CC(=O)Nc1cc(N2CC[C@@H](c3cc(C(=O)Nc4cccc(C(F)(F)F)c4)ccc3C)C2)ccn1 [Example 41, (S)-3-(1-(2-acetamidopyridin-4-yl)pyrrolidin-3-yl)-4-methyl-N-(3-(trifluoromethyl)phenyl)benzamide] | > 8.00 | > 8.00 | – | – | – |
| Cc1ccc(C(=O)Nc2cccc(C(F)(F)F)c2)cc1C1CCN(c2cncc(C(N)=O)c2)C1 (centres unmarked) [Example 17, 5-(3-(2-methyl-5-((3-(trifluoromethyl)phenyl)carbamoyl)phenyl)pyrrolidin-1-yl)nicotinamide] | > 8.00 | 7.60 to 8.00 | – | – | – |
| COCCn1cc(Nc2ccc(N3CC[C@@H](c4cc(C(=O)Nc5cccc(C(F)(F)F)c5)ccc4C)C3)cn2)cn1 [Example 47, (S)-3-(1-(6-((1-(2-methoxyethyl)-1H-pyrazol-4-yl)amino)pyridin-3-yl)pyrrolidin-3-yl)-4-methyl-N-(3-(trifluoromethyl)phenyl)benzamide] | 7.60 to 8.00 | 7.22 to 7.60 | – | – | – |

Further lines, with some results ahead:

| pKi (DDR1; [1]) | pKi (DDR2; [2]) | pKi (DDR2; same binding assay, numeric values, read-out: DDR2 Ki) | Structure (SMILES) | pKi (DDR1; [3]) | Ki (DDR2; DDR2 Ki (nM), same binding assay, numeric values) [nM] |
| --- | --- | --- | --- | --- | --- |
| > 8.00 | > 8.00 | – | Cc1ccc(C(=O)Nc2cccc(C(F)(F)F)c2)cc1C1CCN(c2ccnc(C(N)=O)c2)C1 (racemic) [Example 53, 4-(3-(2-methyl-5-((3-(trifluoromethyl)phenyl)carbamoyl)phenyl)pyrrolidin-1-yl)picolinamide] | – | – |
| > 8.00 | 7.60 to 8.00 | – | COCCNC(=O)c1cncc(N2CCC(c3cc(C(=O)Nc4cccc(C(F)(F)F)c4)ccc3C)C2)c1 (centres unmarked) [Example 9, N-(2-methoxyethyl)-5-(3-(2-methyl-5-((3-(trifluoromethyl)phenyl)carbamoyl)phenyl)pyrrolidin-1-yl)nicotinamide] | – | – |
| > 8.00 | > 8.00 | – | Cc1ccc(C(=O)Nc2cccc(C(F)(F)F)c2)cc1[C@@H]1CCN(c2cnc(Nc3cnn(C)c3)nc2)C1 [Example 48, (S)-4-methyl-3-(1-(2-((1-methyl-1H-pyrazol-4-yl)amino)pyrimidin-5-yl)pyrrolidin-3-yl)-N-(3-(trifluoromethyl)phenyl)benzamide] | – | – |
| > 8.00 | 7.60 to 8.00 | – | Cc1ccc(C(=O)Nc2cccc(C(F)(F)F)c2)cc1C1CCN(c2cncc(N3CCN(C)CC3)c2)C1 (centres unmarked) [Example 12, 4-methyl-3-(1-(5-(4-methylpiperazin-1-yl)pyridin-3-yl)pyrrolidin-3-yl)-N-(3-(trifluoromethyl)phenyl)benzamide] | – | – |
| > 8.00 | > 8.00 | – | Cc1ccc(C(=O)Nc2cccc(C(F)(F)F)c2)cc1C1CCN(c2cncc(OCCN3CCN(C)CC3)c2)C1 (centres unmarked) [Example 6, 4-methyl-3-(1-(5-(2-(4-methylpiperazin-1-yl)ethoxy)pyridin-3-yl)pyrrolidin-3-yl)-N-(3-(trifluoromethyl)phenyl)benzamide] | – | – |
| > 8.00 | > 8.00 | – | Cc1ccc(C(=O)Nc2cccc(C(F)(F)F)c2)cc1C1CCN(c2cncc(OCCN(C)C)c2)C1 (centres unmarked) [Example 23, 3-(1-(5-(2-(dimethylamino)ethoxy)pyridin-3-yl)pyrrolidin-3-yl)-4-methyl-N-(3-(trifluoromethyl)phenyl)benzamide] | – | – |
| > 8.00 | 7.60 to 8.00 | – | Cc1ccc(C(=O)Nc2cccc(C(F)(F)F)c2)cc1C1CCN(c2cncc(NCCN3CCOCC3)c2)C1 (centres unmarked) [Example 22, 4-methyl-3-(1-(5-((2-morpholinoethyl)amino)pyridin-3-yl)pyrrolidin-3-yl)-N-(3-(trifluoromethyl)phenyl)benzamide] | – | – |
| > 8.00 | > 8.00 | – | Cc1ccc(C(=O)Nc2cccc(C(F)(F)F)c2)cc1C1CCN(c2cccnc2)C1 (centres unmarked) [Example 2, 4-methyl-3-(1-(pyridin-3-yl)pyrrolidin-3-yl)-N-(3-(trifluoromethyl)phenyl)benzamide] | – | – |
| > 8.00 | 7.22 to 7.60 | – | Cc1ccc(C(=O)Nc2cccc(C(F)(F)F)c2)cc1C1CCN(c2cncc(N3CCOCC3)c2)C1 (centres unmarked) [Example 8, 4-methyl-3-(1-(5-morpholinopyridin-3-yl)pyrrolidin-3-yl)-N-(3-(trifluoromethyl)phenyl)benzamide] | – | – |
| > 8.00 | 7.22 to 7.60 | – | CO[C@@H]1CCCN(c2cncc(N3CC[C@@H](c4cc(C(=O)Nc5cccc(C(F)(F)F)c5)ccc4C)C3)c2)C1 [Example 36, 3-((S)-1-(5-((R)-3-methoxypiperidin-1-yl)pyridin-3-yl)pyrrolidin-3-yl)-4-methyl-N-(3-(trifluoromethyl)phenyl)benzamide] | – | – |
| > 8.00 | > 8.00 | – | Cc1ccc(C(=O)Nc2cccc(C(F)(F)F)c2)cc1C1CCN(C(=O)c2cccnc2)C1 (centres unmarked) [Example 14, 4-methyl-3-(1-nicotinoylpyrrolidin-3-yl)-N-(3-(trifluoromethyl)phenyl)benzamide] | – | – |
| > 8.00 | > 8.00 | – | Cc1ccc(C(=O)Nc2cccc(C(F)(F)F)c2)cc1C1CCN(c2cncc(C(=O)NCCN(C)C)c2)C1 (centres unmarked) [Example 7, N-(2-(dimethylamino)ethyl)-5-(3-(2-methyl-5-((3-(trifluoromethyl)phenyl)carbamoyl)phenyl)pyrrolidin-1-yl)nicotinamide] | – | – |
| > 8.00 | 7.60 to 8.00 | – | CNC(=O)c1cncc(N2CCC(c3cc(C(=O)Nc4cccc(C(F)(F)F)c4)ccc3C)C2)c1 (centres unmarked) [Example 10, N-methyl-5-(3-(2-methyl-5-((3-(trifluoromethyl)phenyl)carbamoyl)phenyl)pyrrolidin-1-yl)nicotinamide] | – | – |
